According to patent US10800792B2, “Inhibitors of Bruton's tyrosine kinase and method of their use” (JANSSEN PHARMACEUTICA NV, priority 2015, dated 2020):

Each compound was assayed against unphosphorylated-BTK kinase domain (UP-BTK), GST-tagged human BTK (389-659aa) (Homo sapiens (Human), UniProt Q06187) (assay: BTK kinase Lanthascreen binding assay). Settings: Lanthascreen tracer competition, 60 minutes incubation; pIC50 = negative log of the IC50 in molar.
Sequence of unphosphorylated-BTK kinase domain (UP-BTK), GST-tagged human BTK (389-659aa) (Q06187 389-659): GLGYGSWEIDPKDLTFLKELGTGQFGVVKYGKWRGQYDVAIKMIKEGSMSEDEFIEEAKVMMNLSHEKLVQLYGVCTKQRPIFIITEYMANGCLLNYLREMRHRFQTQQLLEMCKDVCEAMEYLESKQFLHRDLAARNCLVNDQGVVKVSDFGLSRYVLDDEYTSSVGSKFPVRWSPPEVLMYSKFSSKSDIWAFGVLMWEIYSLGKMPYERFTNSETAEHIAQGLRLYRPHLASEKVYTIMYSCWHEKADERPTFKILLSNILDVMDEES
Procedure, shortened: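 Measures how well compounds compete with a fluorescence-labelled tracer for binding to BTK in its unphosphorylated state. IC50 values were fitted and expressed as pIC50 (negative logarithm of the molar IC50).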
In the case of `C=CC(=O)N1CCC[C@@H](NC(=O)c2sc3nccc4c3c2NC(=O)N4c2ccc(CC(C)C)nc2C)C1` [Example 764, (R)—N-(1-Acryloylpiperidin-3-yl)-5-(6-isobutyl-2-methylpyridin-3-yl)-4-oxo-4,5-dihydro-3H-1-thia-3,5,8-triazaacenaphthylene-2-carboxamide], the “BTK_I_binding pIC50” value is reported as 6.3. `C=CC(=O)N1CC[C@@H](NC(=O)c2sc3nccc4c3c2NC(=O)N4c2cnc(Oc3ccccc3)cc2C)C1` (single isomer, unassigned) [Example 663, (R)—N-(1-Acryloylpyrrolidin-3-yl)-5-(*S)-(4-methyl-6-phenoxypyridin-3-yl)-4-oxo-4,5-dihydro-3H-1-thia-3,5,8-triazaacenaphthylene-2-carboxamide] was tested, and the “BTK_I_binding pIC50” value was 8.0. In the case of `CC(C)(C)OC(=O)N1C[C@H](NC(=O)c2sc3nccc4c3c2NC(=O)N4c2ccc(Oc3ccccc3)cc2)[C@@H](F)C1` [Example 625, (3S,4S)-tert-Butyl 3-fluoro-4-(4-oxo-5-(4-phenoxyphenyl)-4,5-dihydro-3H-1-thia-3,5,8-triazaacenaphthylene-2-carboxamido)pyrrolidine-1-carboxylate], the “BTK_I_binding pIC50” value is reported as 5.9. With `O=C(N[C@@H]1CNCC[C@H]1O)c1sc2nccc3c2c1NC(=O)N3c1ccc(Oc2ccccc2)cc1` [Example 658, N-((3R,4R)-4-Hydroxypiperidin-3-yl)-4-oxo-5-(4-phenoxyphenyl)-4,5-dihydro-3H-1-thia-3,5,8-triazaacenaphthylene-2-carboxamide] the “BTK_I_binding pIC50” value was 6.6. `CC(C)Oc1cccc(N2C(=O)Nc3c(C(=O)N[C@@H]4CCCNC4)sc4nccc2c34)c1` [Example 637, (R)-5-(3-Isopropoxyphenyl)-4-oxo-N-(piperidin-3-yl)-4,5-dihydro-3H-1-thia-3,5,8-triazaacenaphthlene-2-carboxamide] was tested, and the “BTK_I_binding pIC50” value was 5.7. In the case of `CC(C)(C)OC(=O)N1CCC[C@@H](NC(=O)c2sc3nccc4c3c2NC(=O)N4c2ccc(S(=O)(=O)C(C)(C)C)cc2)C1` [Example 651, (R)-tert-Butyl 3-(5-(4-(tert-butylsulfonyl)phenyl)-4-oxo-4,5-dihydro-3H-1-thia-3,5,8-triazaacenaphthylene-2-carboxamido)piperidine-1-carboxylate], the “BTK_I_binding pIC50” value is reported as <5. For `COCCC(=O)N1CCC(NC(=O)c2sc3nccc4c3c2NC(=O)N4c2ccc(Oc3ccccc3)cc2)CC1` [Example 597, N-(1-(3-Methoxypropanoyl)piperidin-4-yl)-4-oxo-5-(4-phenoxyphenyl)-4,5-dihydro-3H-1-thia-3,5,8-triazaacenaphthylene-2-carboxamide], the “BTK_I_binding pIC50” value was 6.9.

Same assay, conditions: Lanthascreen tracer competition, 60 minutes incubation; pIC50 = negative log of the IC50 in molar; read-out: BTK_I_binding pIC50 (converted)
Work on `C=CC(=O)N[C@H]1COC[C@H]1NC(=O)c1sc2nccc3c2c1NC(=O)N3c1cnc(Oc2ccccc2)cc1C` (single isomer, unassigned) [Example 745, N-((3*S,4*R)-4-Acrylamidotetrahydrofuran-3-yl)-5-(*S)-(4-methyl-6-phenoxypyridin-3-yl)-4-oxo-4,5-dihydro-3H-1-thia-3,5,8-triazaacenaphthylene-2-carboxamide] yielded an IC50 of 7.94 nM. `Cc1cc(Oc2ccccc2)ccc1N1C(=O)Nc2c(C(=O)NC3CCCN(C(=O)CC#N)C3)sc3nccc1c23` (stereo in doubt) [Example 874, (R)—N-(1-(2-cyanoacetyl)piperidin-3-yl)-5-(2-methyl-4-phenoxyphenyl)-4-oxo-4,5-dihydro-3H-1-thia-3,5,8-triazaacenaphthylene-2-carboxamide] gave an IC50 of 63.1 nM. `C=CC(=O)N1CC(NC(=O)c2sc3nccc4c3c2NC(=O)N4c2ccc(Oc3ccccc3)cc2)C[C@@H](O)C1` (stereo in doubt) [Example 589, N-((3R,5R)-1-Acryloyl-5-hydroxypiperidin-3-yl)-4-oxo-5-(4-phenoxyphenyl)-4,5-dihydro-3H-1-thia-3,5,8-triazaacenaphthylene-2-carboxamide] showed an IC50 of 7.94 nM.

Same assay, conditions: pIC50 = negative log of the IC50 in molar; 60 minutes incubation, 50 nM Tracer 236
With `Cc1cc(Oc2ccccc2)ccc1N1C(=O)Nc2c(C(=O)N[C@H]3CNC[C@H]3F)sc3nccc1c23` [Example 154, N-((3S,4R)-4-Fluoropyrrolidin-3-yl)-5-(2-methyl-4-phenoxyphenyl)-4-oxo-4,5-dihydro-3H-1-thia-3,5,8-triazaacenaphthylene-2-carboxamide] the “BTK_I_binding pIC50” value was 7.2. With `C/C=C\C(=O)N1CCC[C@@H](NC(=O)c2sc3nccc4c3c2NC(=O)N4c2ccc(Oc3ccccc3)cc2C)C1` [Example 116, (R,Z)—N-(1-(But-2-enoyl)piperidin-3-yl)-5-(2-methyl-4-phenoxyphenyl)-4-oxo-4,5-dihydro-3H-1-thia-3,5,8-triazaacenaphthylene-2-carboxamide] the “BTK_I_binding pIC50” value was 7.2. For `COC[C@@H](OC)C(=O)N1CCC[C@@H](NC(=O)c2sc3nccc4c3c2NC(=O)N4c2ccc(Oc3ccccc3)cc2C)C1` [Example 190, N—((R)-1-((R)-2,3-Dimethoxypropanoyl)piperidin-3-yl)-5-(2-methyl-4-phenoxyphenyl)-4-oxo-4,5-dihydro-3H-1-thia-3,5,8-triazaacenaphthylene-2-carboxamide], the “BTK_I_binding pIC50” value was 7.0. With `COC[C@H](C)C(=O)N1CCC[C@@H](NC(=O)c2sc3nccc4c3c2NC(=O)N4c2ccc(Oc3ccccc3)cc2C)C1` [Example 156, N—((R)-1-((S)-3-Methoxy-2-methylpropanoyl)piperidin-3-yl)-5-(2-methyl-4-phenoxyphenyl)-4-oxo-4,5-dihydro-3H-1-thia-3,5,8-triazaacenaphthylene-2-carboxamide] the “BTK_I_binding pIC50” value was 7.1. `Cc1c(Oc2ccccc2)ccc(N2C(=O)Nc3c(C(=O)N[C@@H]4CCCN(C)C4)sc4nccc2c34)c1C` [Example 281, (R)-5-(2,3-Dimethyl-4-phenoxyphenyl)-N-(1-methylpiperidin-3-yl)-4-oxo-4,5-dihydro-3H-1-thia-3,5,8-triazaacenaphthylene-2-carboxamide] was tested, and the “BTK_I_binding pIC50” value was 6.2. In the case of `Cc1cc(Oc2ccccc2)ccc1N1C(=O)Nc2c(C(=O)N[C@@H]3CCCN(C(=O)/C(C#N)=C\C(C)(C)N)C3)sc3nccc1c23` [Example 195, (R,Z)—N-(1-(4-Amino-2-cyano-4-methylpent-2-enoyl)piperidin-3-yl)-5-(2-methyl-4-phenoxyphenyl)-4-oxo-4,5-dihydro-3H-1-thia-3,5,8-triazaacenaphthylene-2-carboxamide], the “BTK_I_binding pIC50” value is reported as 7.4. For `COCc1cccc(Oc2ccc(N3C(=O)Nc4c(C(=O)N[C@@H]5CCCN(C)C5)sc5nccc3c45)c(C)c2)c1` [Example 226, (R)-5-(4-(3-(Methoxymethyl)phenoxy)-2-methylphenyl)-N-(1-methylpiperidin-3-yl)-4-oxo-4,5-dihydro-3H-1-thia-3,5,8-triazaacenaphthylene-2-carboxamide], the “BTK_I_binding pIC50” value was 6.5. `N#CCC(=O)N1CCC[C@@H](NC(=O)c2sc3nccc4c3c2NC(=O)N4c2ccc(Oc3ccccc3)cc2)C1` [Example 181, (R)—N-(1-(2-Cyanoacetyl)piperidin-3-yl)-4-oxo-5-(4-phenoxyphenyl)-4,5-dihydro-3H-1-thia-3,5,8-triazaacenaphthylene-2-carboxamide] was tested, and the “BTK_I_binding pIC50” value was 7.1. With `COCC(C)C(=O)N1CCC[C@@H](NC(=O)c2sc3nccc4c3c2NC(=O)N4c2ccc(Oc3ccccc3)cc2C)C1` (stereo partly drawn) [Example 158, N-((3R)-1-(3-Methoxy-2-methylpropanoyl)piperidin-3-yl)-5-(2-methyl-4-phenoxyphenyl)-4-oxo-4,5-dihydro-3H-1-thia-3,5,8-triazaacenaphthylene-2-carboxamide] the “BTK_I_binding pIC50” value was 7.1.

Same assay, conditions: unphosphorylated-BTK kinase domain, 50 nM Tracer 236, 60 minutes; pIC50 = negative log of the IC50 in molar
For `C=CC(=O)N1CCC[C@@H](NC(=O)c2sc3nccc4c3c2NC(=O)N4c2cccc(OC3CCCC3)c2)C1` [Example 561, (R)—N-(1-Acryloylpiperidin-3-yl)-5-(3-(cyclopentyloxy)phenyl)-4-oxo-4,5-dihydro-3H-1-thia-3,5,8-triazaacenaphthylene-2-carboxamide], the “BTK_I_binding pIC50” value was 7.3. For `Cc1cc(Oc2ccccc2)ccc1N1C(=O)Nc2c(C(=O)N[C@H]3CCNC(C)C3)sc3nccc1c23` (single isomer, unassigned) [Example 433, 5-(*R)-(2-Methyl-4-phenoxyphenyl)-N-((4*S)-2-methylpiperidin-4-yl)-4-oxo-4,5-dihydro-3H-1-thia-3,5,8-triazaacenaphthylene-2-carboxamide], the “BTK_I_binding pIC50” value was 5.4. With `Cc1cc(Oc2ccccc2)ccc1N1C(=O)Nc2c(C(=O)N[C@@H]3CCCN(C(=O)[C@H](C)CO)C3)sc3nccc1c23` [Example 564, N—((R)-1-((R)-3-Hydroxy-2-methylpropanoyl)piperidin-3-yl)-5-(2-methyl-4-phenoxyphenyl)-4-oxo-4,5-dihydro-3H-1-thia-3,5,8-triazaacenaphthylene-2-carboxamide] the “BTK_I_binding pIC50” value was 7.2. With `Cc1cc(Oc2ccccc2)cc(C)c1N1C(=O)Nc2c(C(=O)N[C@@H]3CCCN(C)C3)sc3nccc1c23` [Example 317, (R)-5-(2,6-Dimethyl-4-phenoxyphenyl)-N-(1-methylpiperidin-3-yl)-4-oxo-4,5-dihydro-3H-1-thia-3,5,8-triazaacenaphthylene-2-carboxamide] the “BTK_I_binding pIC50” value was 5.8. `C=CC(=O)N1C[C@H](NC(=O)c2sc3nccc4c3c2NC(=O)N4c2ccc(Oc3ccccc3)cc2)[C@@H](O)C1` [Example 463, N-((3S,4S)-1-Acryloyl-4-hydroxypyrrolidin-3-yl)-4-oxo-5-(4-phenoxyphenyl)-4,5-dihydro-3H-1-thia-3,5,8-triazaacenaphthylene-2-carboxamide] was tested, and the “BTK_I_binding pIC50” value was 7.9.

Same assay, conditions: unphosphorylated-BTK kinase domain, 60 minutes incubation, 50 nM Tracer 236; pIC50 = negative log of the IC50 in molar
For `N#C/C(=C\C1CC1)C(=O)N1CCC[C@H](NC(=O)c2sc3nccc4c3c2NC(=O)N4c2cccc(Oc3ccccc3)c2)C1` [Example 939, (S,E)-N-(1-(2-Cyano-3-cyclopropylacryloyl)piperidin-3-yl)-4-oxo-5-(3-phenoxyphenyl)-4,5-dihydro-3H-1-thia-3,5,8-triazaacenaphthylene-2-carboxamide], the “BTK_I_binding pIC50” value was 6.0.
